# Laboratory results from patent US8952024B2, “Herbicidal pyrimidone derivatives” (E I du Pont de Nemours and Company, priority 2009, dated 2015).
# Experiments:
# Type in all cases: in vivo
# [1] = test system: giant foxtail (Setaria faberii); test: Test A pre-/postemergence plant response
# In short: (§1)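 Plants grown from seed in a loam soil and sand mix received test compounds both as a preemergence soil spray and, at the same time, as a postemergence spray at the one- to two-leaf stage. Injury was judged visually against untreated controls roughly ten days later, 0 meaning no effect and 100 complete control.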
# [2] = test system: pigweed (Amaranthus retroflexus); test: Test A pre-/postemergence plant response
# In short: as §1
# [3] = test system: morningglory (Ipomoea spp.); test: Test A pre-/postemergence plant response
# In short: as §1
# [4] = test system: large crabgrass (Digitaria sanguinalis); test: Test A pre-/postemergence plant response
# In short: as §1
# [5] = test system: velvetleaf (Abutilon theophrasti); test: Test A pre-/postemergence plant response
# In short: as §1
# [6] = test system: wheat (Triticum aestivum); test: Test A pre-/postemergence plant response
# In short: as §1
# [7] = test system: corn (Zea mays); test: Test A pre-/postemergence plant response
# In short: as §1
# [8] = test system: barnyardgrass (Echinochloa crus-galli); test: Test A pre-/postemergence plant response
# In short: as §1
# [9] = test system: windgrass (Apera spica-venti); test: Test B postemergence plant response; conditions: Postemergence
# In short: (§2)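 Plants at the 1- to 4-leaf stage (2 to 18 cm tall), grown in pots of peat moss/vermiculite medium with wetting agent and starter nutrients, received postemergence applications of test chemicals. After 13 to 15 days in a greenhouse, injury was rated visually against untreated controls on a 0 (no effect) to 100 (complete control) scale.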
# [10] = test system: canarygrass (Phalaris minor); test: Test B postemergence plant response; conditions: Postemergence
# In short: as §2
# [11] = test system: chickweed (Stellaria media); test: Test B postemergence plant response; conditions: Postemergence
# In short: as §2
# [12] = test system: rice (Oryza sativa); test: Test B flooded paddy test; conditions: for Plant response rating, Rice: Flood (flooded paddy test), 13 to 15 days
# In short: (§3)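 Greenhouse-held for 13 to 15 days, treated pots were compared visually with controls and scored 0–100 (0, no effect). Treatment had been made into paddy water kept at 3 cm above the soil, with plants at the 2-leaf stage.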
# [13] = test system: ducksalad (Heteranthera limosa); test: Test B flooded paddy test; conditions: for Plant response rating, Ducksalad: Flood (flooded paddy test), 13 to 15 days
# In short: as §3
# [14] = Postemergence, 125 g ai/ha, 0 to 100 scale where 0 is no effect and 100 is complete control
# [15] = Postemergence, 500 g ai/ha, 0 to 100 scale, 0 = no effect, 100 = complete control, approx. ten days
# [16] = Preemergence, 125 g ai/ha, 0 to 100 scale, 0 = no effect, 100 = complete control
# [17] = Preemergence, 500 g ai/ha, visual injury, 0 to 100 scale (0 no effect, 100 complete control), approx. ten days
# [18] = Preemergence, 500 g ai/ha, 0 to 100 scale, 0 = no effect, 100 = complete control
# [19] = 31 g ai/ha, 0 to 100 scale (0 no effect, 100 complete control)
# [20] = 125 g ai/ha, scale 0 to 100 (0 no effect, 100 complete control)
# [21] = 250 g ai/ha, scale 0 to 100 (0 no effect, 100 complete control), 13 to 15 days
# [22] = 125 g ai/ha, scale 0 to 100, 0 is no effect, 100 is complete control
# [23] = Flood, 31 g ai/ha, scale 0 to 100 (0 no effect, 100 complete control)
# [24] = Postemergence, 125 g ai/ha, visual injury, 0 to 100 scale (0 no effect, 100 complete control), approx. ten days
# [25] = 31 g ai/ha, scale 0 to 100 (0 no effect, 100 complete control)
# [26] = 62 g ai/ha, scale 0 (no effect) to 100 (complete control), 13 to 15 days
# [27] = 125 g ai/ha, visual rating after 13 to 15 days, scale 0 (no effect) to 100 (complete control)
# [28] = 250 g ai/ha, flooded paddy test, visual rating on 0 to 100 scale (0 no effect, 100 complete control) after 13 to 15 days
# [29] = 31 g ai/ha, scale of 0 to 100 where 0 is no effect and 100 is complete control
# [30] = 62 g ai/ha, scale 0 to 100, 0 is no effect, 100 is complete control
smiles,measurement,setting,value
Cc1ccc(F)cc1-n1c(-c2cccc(Cl)c2)ncc(C(=O)C2=C(O)CCCC2=O)c1=O [Compound 157],"Plant response rating, Foxtail, Giant",[1]; [14],90
same,"Plant response rating, Foxtail, Giant",[1]; [15],100
same,"Plant response rating, Foxtail, Giant",[1]; [16],10
same,"Plant response rating, Foxtail, Giant",[1]; [17],50
same,"Plant response rating, Pigweed",[2]; [14],90
same,"Plant response rating, Pigweed",[2]; [15],100
same,"Plant response rating, Pigweed",[2]; [16],0
same,"Plant response rating, Pigweed",[2]; [17],50
same,"Plant response rating, Morningglory",[3]; [14],10
same,"Plant response rating, Morningglory",[3]; [15],30
same,"Plant response rating, Morningglory",[3]; [16],0
same,"Plant response rating, Morningglory",[3]; [17],0
same,"Plant response rating, Crabgrass, Large",[4]; [14],80
same,"Plant response rating, Crabgrass, Large",[4]; [15],100
same,"Plant response rating, Crabgrass, Large",[4]; [16],20
same,"Plant response rating, Crabgrass, Large",[4]; [17],70
same,"Plant response rating, Velvetleaf",[5]; [14],100
same,"Plant response rating, Velvetleaf",[5]; [15],100
same,"Plant response rating, Velvetleaf",[5]; [16],60
same,"Plant response rating, Velvetleaf",[5]; [18],100
same,"Plant response rating, Wheat",[6]; [14],0
same,"Plant response rating, Wheat",[6]; [15],0
same,"Plant response rating, Wheat",[6]; [16],0
same,"Plant response rating, Wheat",[6]; [18],0
same,"Plant response rating, Corn",[7]; [14],0
same,"Plant response rating, Corn",[7]; [15],30
same,"Plant response rating, Corn",[7]; [16],0
same,"Plant response rating, Corn",[7]; [17],0
same,"Plant response rating, Barnyardgrass",[8]; [14],90
same,"Plant response rating, Barnyardgrass",[8]; [15],100
same,"Plant response rating, Barnyardgrass",[8]; [16],0
same,"Plant response rating, Barnyardgrass",[8]; [17],50
same,"Plant response rating, Windgrass",[9]; [19],60
same,"Plant response rating, Windgrass",[9]; [20],70
same,"Plant response rating, Windgrass",[9]; [21],80
same,"Plant response rating, Canarygrass",[10]; [19],40
same,"Plant response rating, Canarygrass",[10]; [20],80
same,"Plant response rating, Canarygrass",[10]; [21],90
same,"Plant response rating, Chickweed",[11]; [19],100
same,"Plant response rating, Chickweed",[11]; [20],100
same,"Plant response rating, Chickweed",[11]; [21],100
same,"Plant response rating, Rice",[12]; [22],0
same,Rice plant response rating,[12]; [23],0
same,"Plant response rating, Ducksalad",[13]; [22],70
same,Ducksalad plant response rating,[13]; [23],50
Cc1ccc(-n2c(-c3ccccc3)ncc(C(=O)C3=C(O)CCCC3=O)c2=O)cc1 [Compound 8],"Foxtail, Giant plant response rating",[1]; [24],90
same,"Plant response rating, Foxtail, Giant",[1]; [15],100
same,"Plant response rating, Foxtail, Giant",[1]; [16],40
same,"Plant response rating, Foxtail, Giant",[1]; [17],90
same,Pigweed plant response rating,[2]; [24],100
same,"Plant response rating, Pigweed",[2]; [15],100
same,"Plant response rating, Pigweed",[2]; [16],90
same,"Plant response rating, Pigweed",[2]; [17],90
same,Morningglory plant response rating,[3]; [24],90
same,"Plant response rating, Morningglory",[3]; [15],100
same,"Plant response rating, Morningglory",[3]; [16],0
same,"Plant response rating, Morningglory",[3]; [17],70
same,"Crabgrass, Large plant response rating",[4]; [24],80
same,"Plant response rating, Crabgrass, Large",[4]; [15],90
same,"Plant response rating, Crabgrass, Large",[4]; [16],40
same,"Plant response rating, Crabgrass, Large",[4]; [17],100
same,Velvetleaf plant response rating,[5]; [24],100
same,"Plant response rating, Velvetleaf",[5]; [15],100
same,"Plant response rating, Velvetleaf",[5]; [16],50
same,"Plant response rating, Velvetleaf",[5]; [17],90
same,Wheat plant response rating,[6]; [24],10
same,"Plant response rating, Wheat",[6]; [15],50
same,"Plant response rating, Wheat",[6]; [16],0
same,"Plant response rating, Wheat",[6]; [17],20
same,Corn plant response rating,[7]; [24],10
same,"Plant response rating, Corn",[7]; [15],50
same,"Plant response rating, Corn",[7]; [16],0
same,"Plant response rating, Corn",[7]; [17],20
same,Barnyardgrass plant response rating,[8]; [24],90
same,"Plant response rating, Barnyardgrass",[8]; [15],100
same,"Plant response rating, Barnyardgrass",[8]; [16],10
same,"Plant response rating, Barnyardgrass",[8]; [17],80
same,"Plant response rating, Windgrass",[9]; [25],5
same,"Plant response rating, Windgrass",[9]; [26],20
same,"Plant response rating, Windgrass",[9]; [27],30
same,Windgrass plant response rating,"[9]; 250 g ai/ha, scale 0 to 100",40
same,"Plant response rating, Canarygrass",[10]; [25],20
same,"Plant response rating, Canarygrass",[10]; [26],50
same,"Plant response rating, Canarygrass",[10]; [27],70
same,Canarygrass plant response rating,"[10]; 250 g ai/ha, scale 0 to 100",85
same,"Plant response rating, Chickweed",[11]; [25],98
same,"Plant response rating, Chickweed",[11]; [26],100
same,"Plant response rating, Chickweed",[11]; [27],100
same,Chickweed plant response rating,"[11]; 250 g ai/ha, scale 0 to 100",100
same,"Plant response rating, Flood, Rice",[12]; [28],50
same,"Plant response rating, Rice",[12]; [29],0
same,"Plant response rating, Rice",[12]; [30],0
same,"Plant response rating, Rice",[12]; [22],15
same,"Plant response rating, Flood, Ducksalad",[13]; [28],90
same,"Plant response rating, Ducksalad",[13]; [29],30
same,"Plant response rating, Ducksalad",[13]; [30],85
same,"Plant response rating, Ducksalad",[13]; [22],85
